Source: ChEMBL document CHEMBL5050850, “Compositions and methods of using the same for treatment of neurodegenerative and mitochondrial disease” (2020)
In brackets after ≈: the same amount, converted by molar mass. Activity calls are given as the source filed them. The calls are words filed in the database; no cut-off is given here.

Key:
[1] = Solubility of compound in PBS; format: physicochemical
[2] = Induction of mitophagy in human HeLa MKYP cells treated with FCCP/oligomycin for 6 hrs and measured by FACS analysis; format: functional, cell-based
[3] = tested on: HeLa; assay: Cytotoxicity against human HeLa MKYP cells assessed as percentage of DAPI-positive cells at 50 uM and measured by DAPI staining method; format: toxicity, cell-based
[4] = tested on: HeLa; assay: Cytotoxicity against human HeLa MKYP cells assessed as cell death at 25 uM treated with FCCP/oliogmycin and measured DAPI staining method assay relative to control; format: toxicity, cell-based
[5] = tested on: HeLa; assay: Cytotoxicity against human HeLa MKYP cells assessed as cell death at 25 uM and measured DAPI staining method assay relative to control; format: toxicity, cell-based
[6] = Ratio of highest compound concentration with no observable mitotoxicity to EC50 of compound to induce mitophagy in human HeLa MKYP cells; format: functional
[7] = target: Serine/threonine-protein kinase PINK1, mitochondrial (Homo sapiens) (UniProt Q9BXM7); assay: Activation of PINK1 in human HeLa cells stably expressing YFP parkin assessed as reduction in dOTC protein accumulation and measured by ornithine carbamoyltransferase (DOTC) assay relative to control; format: cell-based; conditions: filed as activator
[8] = target: Serine/threonine-protein kinase PINK1, mitochondrial (Homo sapiens) (UniProt Q9BXM7); assay: Activation of PINK1 in human HeLa MKYP cells expressing PINK1 treated with FCCP/oilgomycin assessed as increase in pS65 Ub and measured by ELISA assay; format: cell-based; conditions: filed as activator
[9] = target: Serine/threonine-protein kinase PINK1, mitochondrial (Homo sapiens) (UniProt Q9BXM7); assay: Activation of PINK1 in human HeLa MKYP PINK1-knock out cells treated with FCCP/oilgomycin assessed as increase in pS65 Ub and measured by ELISA assay; format: cell-based
[10] = target: Serine/threonine-protein kinase PINK1, mitochondrial (Homo sapiens) (UniProt Q9BXM7); assay: Activation of PINK1 in human HeLa MKYP cells expressing PINK1 treated with FCCP/oilgomycin assessed as increase in parkin recruitment and measured by ELISA assay; format: cell-based; conditions: filed as activator
[11] = target: Serine/threonine-protein kinase PINK1, mitochondrial (Homo sapiens) (UniProt Q9BXM7); assay: Activation of PINK1 in human HeLa MKYP PINK1-knock out cells treated with FCCP/oilgomycin assessed as increase in parkin recruitment and measured by ELISA assay; format: cell-based
[12] = tested on: HeLa; assay: Induction of mitophagy in human HeLa MKYP cells expressing wild-type PNIK1 treated with FCCP/oligomycin for 6 hrs and measured by FACS analysis; format: functional, cell-based
[13] = tested on: HeLa; assay: Induction of mitophagy in human HeLa MKYP PINK1-knockout cells treated with FCCP/oligomycin for 6 hrs and measured by FACS analysis; format: functional, cell-based
[14] = target: Serine/threonine-protein kinase PINK1, mitochondrial (Homo sapiens) (UniProt Q9BXM7); assay: Activation of PINK1 in human iPSC derived neurons at 3.1 to 6.2 uM assessed as reduction in pS129 alpha-synuclein; format: cell-based; conditions: Neuron, filed as activator, dose 3.1-6.2 µM
[15] = target: Serine/threonine-protein kinase PINK1, mitochondrial (Homo sapiens) (UniProt Q9BXM7); assay: Activation of PINK1 in human HeLa MKYP PINK1-knock out cells at 3.125 to 6.25 uM assessed as reduction in pS129 alpha-synuclein; format: cell-based; conditions: dose 3.125-6.25 µM
[16] = tested on: Mus musculus; assay: Protection against preformed alpha-synuclein amyloid fibril (PFF) in C57BL/6 mouse model assessed as decrease in C-terminal truncation of alpha-synuclein in ipsilateral striatum at 5 to 50 mg/kg, po administered daily for 28 days; format: functional, organism-based; conditions: dose 5-50 mg/kg, time 28.0 day
[17] = tested on: Mus musculus; assay: Protection against preformed alpha-synuclein amyloid fibril (PFF) in C57BL/6 mouse model assessed as decrease in pS129 monomer of alpha-synuclein in ipsilateral striatum at 5 to 50 mg/kg, po administered daily for 28 days; format: functional, organism-based; conditions: dose 5-50 mg/kg, time 28.0 day
[18] = tested on: Mus musculus; assay: Protection against preformed alpha-synuclein amyloid fibril (PFF) in C57BL/6 mouse model assessed as decrease in total monomer of alpha-synuclein in ipsilateral striatum at 5 to 50 mg/kg, po administered daily for 28 days; format: functional, organism-based; conditions: dose 5-50 mg/kg, time 28.0 day
[19] = tested on: Mus musculus; assay: Protection against preformed alpha-synuclein amyloid fibril (PFF) in C57BL/6 mouse model assessed as decrease in all species of alpha-synuclein in ipsilateral striatum at 5 to 50 mg/kg, po administered daily for 28 days; format: functional, organism-based; conditions: dose 5-50 mg/kg, time 28.0 day
[20] = tested on: Mus musculus; assay: Protection against preformed alpha-synuclein amyloid fibril (PFF) in C57BL/6 mouse model assessed as decrease in all species of alpha-synuclein in contralateral striatum at 5 to 50 mg/kg, po administered daily for 28 days; format: functional, organism-based; conditions: dose 5-50 mg/kg, time 28.0 day
[21] = tested on: Mus musculus; assay: Protection against preformed alpha-synuclein amyloid fibril (PFF) in C57BL/6 mouse model assessed as decrease in all species of alpha-synuclein in ventral midbrain at 5 to 50 mg/kg, po administered daily for 28 days; format: functional, organism-based; conditions: dose 5-50 mg/kg, time 28.0 day
[22] = tested on: Mus musculus; assay: Protection against cisplatin-induced mitochondrial dysfunction in mouse assessed as decrease in GDF15 expression at 20 to 50 mg/kg, po administered daily; format: functional, organism-based; conditions: dose 20-50 mg/kg
[23] = Induction of mitophagy in human HeLa MKYP cells treated at 6.3 uM with FCCP/oligomycin for 6 hrs and measured by FACS analysis relative to control; format: functional

Serine/threonine-protein kinase PINK1, mitochondrial (Homo sapiens), sequence (Q9BXM7 whole entry, the tested form may be a part): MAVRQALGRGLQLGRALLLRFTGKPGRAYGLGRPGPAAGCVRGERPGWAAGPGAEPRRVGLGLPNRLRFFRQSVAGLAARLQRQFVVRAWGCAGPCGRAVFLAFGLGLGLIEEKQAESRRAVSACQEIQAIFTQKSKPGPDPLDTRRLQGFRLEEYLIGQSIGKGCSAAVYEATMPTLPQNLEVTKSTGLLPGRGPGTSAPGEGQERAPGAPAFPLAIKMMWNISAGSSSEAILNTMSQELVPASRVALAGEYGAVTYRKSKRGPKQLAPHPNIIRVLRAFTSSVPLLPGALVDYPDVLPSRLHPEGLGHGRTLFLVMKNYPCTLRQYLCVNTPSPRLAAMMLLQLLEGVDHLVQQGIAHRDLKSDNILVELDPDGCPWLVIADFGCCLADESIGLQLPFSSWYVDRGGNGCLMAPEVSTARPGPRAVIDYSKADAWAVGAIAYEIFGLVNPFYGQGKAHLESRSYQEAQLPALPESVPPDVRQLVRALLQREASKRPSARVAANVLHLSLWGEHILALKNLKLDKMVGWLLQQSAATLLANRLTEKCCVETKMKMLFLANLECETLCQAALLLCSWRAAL

Structure (SMILES) | solubility [1] [µM] | EC50 [2] [nM] | Activity [3] [%] | Activity [4] [%] | Activity [5] [%] | Ratio [6] | Activity [23] [%] | other results
c1ccc2c(c1)CCC[C@H]2Nc1ncnc2[nH]c(C3CC3)cc12 | 1 (≈ 0.304 µg/mL) | 470 | 16.6 | 14.9 | 9.32 | 53.2 |  | 
N#Cc1cccc2c1CCCC2Nc1ncnc2[nH]c(C(F)(F)F)cc12 (stereo not drawn) | 1 (≈ 0.357 µg/mL) | 2980 | 71.2 | 71.2 | 57.1 | 8.39 |  | 
FC(F)(F)c1cc2c(NC3CCCc4ccccc43)ncnc2[nH]1 (stereo in doubt) |  |  |  |  |  |  |  | Activity [7]: Active; Activity [8]: Active; Activity [9]: inactive; Activity [10]: Active; Activity [11]: inactive; Activity [12]: Active; Activity [13]: inactive; Activity [14]: Active; Activity [15]: inactive; Activity [16]: Active; Activity [17]: Active; Activity [18]: Active; Activity [19]: Active; Activity [20]: Active; Activity [21]: Active; Activity [22]: Active
CN1CC[C@H](Nc2ncnc3[nH]c(C(F)(F)F)cc23)c2ccccc21 |  | 1330 | 59 | 16 | 2.51 | 30 |  | 
CC(C)(Nc1ncnc2[nH]c(C(F)(F)F)cc12)c1ccccc1 |  |  | 5.6 |  |  |  | 17 | 
CCCCNc1ncnc2[nH]c(C(F)(F)F)cc12 |  |  | 4.6 |  |  |  | 42.3 | 
Fc1ccc2c(c1)CCCC2Nc1ncnc2[nH]c(C(F)(F)F)cc12 (stereo not drawn) | 1 (≈ 0.35 µg/mL) | 1060 | 30.1 | 30.1 | 3.27 |  |  | 
CC(Nc1ncnc2[nH]c(C(F)(F)F)cc12)c1ccccc1 (stereo not drawn) |  |  | 2.4 |  |  |  | 88.4 | 
CCCCNc1ncnc2[nH]c(C)cc12 |  |  | 15.4 |  |  |  | 43.4 | 
FC(F)(F)c1cc2c(NC3(c4ccccc4)CC3)ncnc2[nH]1 |  |  | 80.5 |  |  |  | 20.8 | 
FC(F)(F)c1cc2c(NC3COc4ccccc43)ncnc2[nH]1 (stereo not drawn) |  |  | 39.7 |  |  |  | 52.5 | 
FC(F)(F)c1cc2c(NCc3ccccc3)ncnc2[nH]1 |  |  | 50.4 |  |  |  | 35.1 | 

The next lines start with results.

solubility [1] [µM] | EC50 [2] [nM] | Structure (SMILES) | Activity [3] [%] | Activity [4] [%] | Activity [5] [%] | Ratio [6] | Activity [23] [%] | other results
1 (≈ 0.362 µg/mL) | 22100 | CO[C@@H]1CCc2ccccc2[C@H]1Nc1ncnc2[nH]c(C(F)(F)F)cc12 | 18.4 | 18.4 | 15.3 |  |  | 
 | 6300 | FC(F)(F)c1cc2c(N[C@@H]3CCOc4ccccc43)ncnc2[nH]1 | 21.1 | 21 | 3.04 | 8.85 |  | 
 | 1100 | C[C@H]1CCc2ccccc2[C@H]1Nc1ncnc2[nH]c(C(F)(F)F)cc12 | 12 | 12 | 6.45 | 7.74 |  | 
 | 1800 | CC[C@@H]1CCc2ccccc2[C@@H]1Nc1ncnc2[nH]c(C(F)(F)F)cc12 | 8.7 | 8.735 | 5.04 | 13.8 |  | 
 | 15100 | O[C@@H]1Cc2ccccc2[C@H]1Nc1ncnc2[nH]c(C(F)(F)F)cc12 | 7.6 | 7.59 | 2.35 | 1.66 |  | 
 | 1100 | OC[C@@H]1CCc2ccccc2[C@H]1Nc1ncnc2[nH]c(C(F)(F)F)cc12 | 59.5 | 59.535 | 27 | 7.25 |  | 
1 (≈ 0.348 µg/mL) | > 50000 | OC1CCc2ccccc2C1Nc1ncnc2[nH]c(C(F)(F)F)cc12 (stereo not drawn) | 12.8 | 12.8 | 3.79 |  |  | 
1 (≈ 0.346 µg/mL) | 600 | C[C@H]1CCc2ccccc2[C@@H]1Nc1ncnc2[nH]c(C(F)(F)F)cc12 | 13.3 | 13.32 | 3.79 | 8.69 |  | 
1 (≈ 0.346 µg/mL) | 4180 | C[C@@H]1CCc2ccccc2[C@H]1Nc1ncnc2[nH]c(C(F)(F)F)cc12 | 23.8 | 23.8 | 17.9 |  |  | 
1.31 (≈ 0.475 µg/mL) | 1480 | CO[C@H]1CCc2ccccc2[C@@H]1Nc1ncnc2[nH]c(C(F)(F)F)cc12 | 7.7 | 7.67 | 5.15 |  |  | 
 | 18500 | O[C@H]1Cc2ccccc2[C@@H]1Nc1ncnc2[nH]c(C(F)(F)F)cc12 | 14.4 | 14.4 | 2.51 | 1.35 |  | 
